ChEMBL document CHEMBL5385929, “Tabersonine Enhances Olaparib Sensitivity through FHL1-Mediated Epithelial-Mesenchymal Transition in an Ovarian Tumor” (J Nat Prod, 2024)
The source made the active and inactive calls.

Tests used:
SK-OV-3 [1] = experiment: Potentiation of olaparib sensitivity in human SK-OV-3 cells transfected with shFHL1-2 RNA assessed as inhibition of cell invasion at 10 uM measured after 48 hrs in presence of olaparib by Transwell assay; format: functional, cell-based
SK-OV-3 [2] = experiment: Inhibition of cell invasion in human SK-OV-3 cells transfected with shFHL1-1 RNA at 10 uM measured after 48 hrs by Transwell assay; format: functional, cell-based
A2780 [3] = experiment: Potentiation of olaparib sensitivity in human A2780 cells transfected with shFHL1-1 RNA assessed as inhibition of cell invasion at 10 uM measured after 48 hrs in presence of olaparib by Transwell assay; format: functional, cell-based
A2780 [4] = experiment: Potentiation of olaparib-induced antitumor activity against shNC RNA-transfected human A2780 cells xenografted in BALB/c mouse assessed as decrease in tumor volume at 15 mg/kg, ip co-administered with olaparib for 2 weeks; format: functional, organism-based
A2780 [5] = experiment: Antitumor activity against human A2780 cells xenografted in BALB/c mouse assessed as decrease in tumor weight at 5 to 15 mg/kg, ip administered every other day for 2 weeks; format: functional, organism-based; conditions: dose 5-15 mg/kg
[6] = Toxicity in BALB/c mouse xenografted with human A2780 cells assessed as effect on body weight at 15 mg/kg, ip co-administered with olaparib for 2 weeks; format: organism-based; conditions: in vivo, 336 h
A2780 [7] = experiment: Potentiation of olaparib sensitivity in human A2780 cells transfected with shFLH1-2 RNA assessed as downregulation of EMT signaling by measuring E-cadherin protein expression at 10 uM in presence of olaparib by western blot analysis; format: functional, cell-based
[8] = Toxicity in BALB/c mouse xenografted with human A2780 cells assessed as decrease in body weight at 30 mg/kg, ip administered every other day and measured on day 6; format: organism-based; conditions: in vivo, 144 h, time 6 day
SK-OV-3 [9] = experiment: Potentiation of olaparib sensitivity in human SK-OV-3 cells assessed as downregulation of EMT signaling by measuring downregulation of N-cadherin protein expression at 10 uM in presence of olaparib by western blot analysis; format: functional, cell-based
SK-OV-3 [10] = experiment: Antiproliferative activity against human SK-OV-3 cells assessed as inhibition of cell viability measured after 48 hrs by CCK8 assay; format: functional, cell-based; conditions: SK-OV-3, 48 h
SK-OV-3 [11] = experiment: Potentiation of olaparib sensitivity in human SK-OV-3 cells transfected with shFLH1-2 RNA assessed as downregulation of EMT signaling by measuring N-cadherin protein expression at 10 uM in presence of olaparib by western blot analysis; format: functional, cell-based
A2780 [12] = experiment: Potentiation of olaparib sensitivity in human A2780 cells transfected with shFHL1-2 RNA assessed as inhibition of cell migration at 10 uM measured after 24 to 48 hrs in presence of olaparib by wound healing assay; format: functional, cell-based; conditions: time 24-48 hrs
SK-OV-3 [13] = experiment: Potentiation of olaparib sensitivity in human SK-OV-3 cells assessed as inhibition of colony formation at 10 uM incubated for 48 hrs in presence of olaparib followed by drug wash-out and incubated in fresh medium for 2 weeks by crystal violet staining based analysis; format: functional, cell-based
SK-OV-3 [14] = experiment: Effect on FHL1 mRNA expression in human SK-OV-3 cells at 5 to 20 uM by real-time PCR analysis; format: functional, cell-based; conditions: dose 5-20 µM
SK-OV-3 [15] = experiment: Potentiation of olaparib sensitivity in human SK-OV-3 cells assessed as downregulation of EMT signaling by measuring downregulation of vimentin protein expression at 10 uM in presence of olaparib by western blot analysis; format: functional, cell-based
SK-OV-3 [16] = experiment: Downregulation of EMT signalling in human SK-OV-3 cells assessed as downregulation of vimentin protein expression at 10 uM by western blot analysis; format: functional, cell-based
Mus musculus [17] = experiment: Potentiation of olaparib sensitivity in BALB/c mouse xenografted with shFHL1-1 RNA-transfected human A2780 cells assessed as downregulation of N-cadherin protein expression in tumor at 15 mg/kg, ip co-administered with olaparib for 2 weeks by western blot analysis; format: functional, organism-based
A2780 [18] = experiment: Downregulation of EMT signalling in human A2780 cells transfected with shFHL1-1 RNA assessed as N-cadherin protein expression at 10 uM by western blot analysis; format: functional, cell-based
A2780 [19] = experiment: Downregulation of EMT signalling in human A2780 cells transfected with shFHL1-2 RNA assessed as E-cadherin protein expression at 10 uM by western blot analysis; format: functional, cell-based
SK-OV-3 [20] = experiment: Downregulation of EMT signalling in human SK-OV-3 cells transfected with shFHL1-2 RNA assessed as E-cadherin protein expression at 10 uM by western blot analysis; format: functional, cell-based
Mus musculus [21] = experiment: Potentiation of olaparib sensitivity in BALB/c mouse xenografted with shFHL1-1 RNA-transfected human A2780 cells assessed as increase in FHL1 protein expression in tumor at 15 mg/kg, ip co-administered with olaparib for 2 weeks by immunohistochemistry; format: functional, organism-based
A2780 [22] = experiment: Inhibition of cell migration in human A2780 cells transfected with shFHL1-1 RNA at 10 uM measured after 24 to 48 hrs by wound healing assay; format: functional, cell-based; conditions: time 24-48 hrs
A2780 [23] = experiment: Antitumor activity against human A2780 cells xenografted in BALB/c mouse assessed as decrease in tumor growth at 5 to 15 mg/kg, ip administered every other day for 2 weeks; format: functional, organism-based; conditions: dose 5-15 mg/kg
SK-OV-3 [24] = experiment: Potentiation of olaparib sensitivity in human SK-OV-3 cells transfected with shFLH1-2 RNA assessed as downregulation of EMT signaling by measuring E-cadherin protein expression at 10 uM in presence of olaparib by western blot analysis; format: functional, cell-based
Mus musculus [25] = experiment: Potentiation of olaparib sensitivity in BALB/c mouse xenografted with shFHL1-1 RNA-transfected human A2780 cells assessed as upregulation of FHL1 protein expression in tumor at 15 mg/kg, ip co-administered with olaparib for 2 weeks by western blot analysis; format: functional, organism-based
A2780 [26] = experiment: Potentiation of olaparib sensitivity in human A2780 cells transfected with shFLH1-1 RNA assessed as downregulation of EMT signaling by measuring vimentin protein expression at 10 uM in presence of olaparib by western blot analysis; format: functional, cell-based
SK-OV-3 [27] = experiment: Potentiation of olaparib sensitivity in human SK-OV-3 cells assessed as inhibition of cell migration at 10 uM measured after 24 to 48 hrs in presence of olaparib by wound healing assay; format: functional, cell-based; conditions: time 24-48 hrs
SK-OV-3 [28] = experiment: Increase in FHL1 protein stability in human SK-OV-3 cells at 10 uM measured after 6 to 24 hrs in presence of cycloheximide by CHX chase assay based western blot analysis; format: functional, cell-based; conditions: time 6-24 hrs
SK-OV-3 [29] = experiment: Downregulation of EMT signalling in human SK-OV-3 cells transfected with shFHL1-1 RNA assessed as vimentin protein expression at 10 uM by western blot analysis; format: functional, cell-based
SK-OV-3 [30] = experiment: Potentiation of olaparib sensitivity in human SK-OV-3 cells transfected with shFLH1-1 RNA assessed as downregulation of EMT signaling by measuring vimentin protein expression at 10 uM in presence of olaparib by western blot analysis; format: functional, cell-based
A2780 [31] = experiment: Potentiation of olaparib-induced antitumor activity against shNC RNA-transfected human A2780 cells xenografted in BALB/c mouse assessed as decrease in tumor weight at 15 mg/kg, ip co-administered with olaparib for 2 weeks; format: functional, organism-based

CC[C@]12C=CCN3CC[C@]4(C(=C(C(=O)OC)C1)Nc1ccccc14)[C@@H]32 [TABERSONINE]
25 µM: IC50 (SK-OV-3 [10])
active: Activity (A2780 [4]) | Activity (A2780 [5]) | Activity (SK-OV-3 [9]) | Activity (SK-OV-3 [13]) | Activity (SK-OV-3 [15]) | inhibition (SK-OV-3 [16]) | Activity (A2780 [23]) | Activity (SK-OV-3 [27]) | Activity (SK-OV-3 [28]) | Activity (A2780 [31])
Toxic: Activity [8]
inactive: Activity (SK-OV-3 [1]) | inhibition (SK-OV-3 [2]) | Activity (A2780 [3]) | Activity (A2780 [7]) | Activity (SK-OV-3 [11]) | Activity (A2780 [12]) | Activity (SK-OV-3 [14]) | Activity (Mus musculus [17]) | inhibition (A2780 [18]) | inhibition (A2780 [19]) | inhibition (SK-OV-3 [20]) | Activity (Mus musculus [21]) | inhibition (A2780 [22]) | Activity (SK-OV-3 [24]) | Activity (Mus musculus [25]) | Activity (A2780 [26]) | inhibition (SK-OV-3 [29]) | Activity (SK-OV-3 [30])
Non-Toxic: Activity [6]
